Assay results as given in paper PMC8523172, “Structure of mycobacterial CIII2CIV2 respiratory supercomplex bound to the tuberculosis drug candidate telacebec (Q203)” (eLife, 2021).

How the values were obtained:
Type in all cases: biochemical
[1] = target: T1, CIII2CIV2 supercomplex, subunit QcrB (QP site) (Mycolicibacterium smegmatis, UniProt I7FGS8+I7GD61); assay: Clark-type electrode oxygen consumption, purified enzyme turnover ([…] substrate)
T1 construct: purified CIII2CIV2 supercomplex with 3×FLAG tag at the C terminus of QcrB; with QcrA (Rieske subunit) within CIII2CIV2

[2] = target: T1, CIII2CIV2 supercomplex, subunit QcrB (QP site); assay: oxygen consumption (DMWH2:O2 oxidoreductase) inhibition of purified enzyme
[3] = target: T1, CIII2CIV2 supercomplex, subunit QcrB (QP site); assay: Clark-type electrode oxygen consumption, purified enzyme

Cc1c(C)c(O)c2ccccc2c1O [DMWH2, 2,3-dimethyl-[1,4]naphthohydroquinone]
Clark-type electrode oxygen consumption, purified enzyme turnover (100 μM substr) [1]: 91 ± 4 e^-/s

CCc1nc2ccc(Cl)cn2c1C(=O)NCc1ccc(N2CCC(c3ccc(OC(F)(F)F)cc3)CC2)cc1 [telacebec]
IC50 [2]: 53 ± 19 nM

Cc1cc(O)c2ccccc2c1O [menadiol, 2-methyl-[1,4]naphthohydroquinone]
Clark-type electrode oxygen consumption, purified enzyme [3]: CIII2CIV2 activity is greater with DMWH2 green curve, than with menadiol brown curve
